What was measured:
Male CD-1 mice = assay: Dizocilpine-induced locomotor hyperactivity in mice; type: in vivo
Description: Potential antipsychotic activity was tested for the representative compound 24 in mouse model of psychosis, involving the induction of locomotor hyperactivity by administering psychotomimetic substance-dizocilpine. The ability of a test compound to remove this effect is a measure of potential antipsychotic activity.
Male CD-1 mice were group-housed for 2-3 day period in polycarbonate Makrolon type 3 cages (dimensions 26.5×15×42 cm) in an environmentally controlled, experimental room (ambient temperature 22-20° C.; relative humidity 50-60%; 12:12 light:dark cycle, lights on at 8:00), in groups of 15. Standard laboratory food (Ssniff M-Z) and filtered water were freely available. On the day before experiments the equipment produced “white noise” was turned on for 30 minutes and mice were weighted exact to 1 g. Animals were assigned randomly to treatment groups. All the experiments were performed by two observers unaware of the treatment applied between 9:00 and 14:00 on separate groups of animals. […]
The locomotor activity was recorded with an Opto M3 multi-channel activity monitor (MultiDevice Software v.1.3, Columbus Instruments). The mice were individually placed in plastic cages (22×12×13 cm) for 30 minutes habituation period, and then the crossings of each channel (ambulation) were counted during 1 h with data recording every 5 minutes. […]

[1] = biological target: T1, 5-HT7 receptor, human recombinant (Homo sapiens, UniProt P34969); assay: Binding assay, 5-HT7 receptor ([3H]LSD); details: read-out: Inhibition constant Ki 5-HT7
T1 construct: purchased PerkinElmer
Description: Moreover, ability of the compounds of the invention to block potassium channel hERG was tested.
The specific ligand binding to the receptors is defined as the difference between the total binding and the non-specific binding determined in the presence of an excess of unlabelled ligand.
The inhibition constants (Ki) were calculated using the Cheng Prusoff equation (Ki=IC50/(1+(L/KD)), where L=concentration of radioligand in the assay, and KD=affinity of the radioligand for the receptor). A Scatchard plot is used to determine the Kd. The IC50 values (concentration causing a half-maximal inhibition of control specific binding) and Hill coefficients (nH) were determined by non-linear regression analysis of the competition curves generated with mean replicate values using Hill equation curve fitting (Y=D+[(A−D)/(1+(C/C50)^nH)], where Y=specific binding, D=minimum specific binding, A=maximum specific binding, C=compound concentration, C50=IC50, and nH=slope factor).

C57BL/6J mice = assay: Tail suspension test in C57BL/6J mice; type: in vivo
Description: Within 24 h prior to testing, animals were habituated to experimental conditions. For this purpose mice in home cages were transferred to the experimental room for 15 min., while maintaining the lighting and the “white noise” characteristic for the experiment.
The testing procedure was performed on male C57BL/6J mice and based on a method of Steru et al. (The tail suspension test: a new method for screening antidepressants in mice, Psychopharmacology 85, 367-370, 1985). An automated device (Kinder Scientific) was used. After 1 h of adaptation in the experimental room with low light, the mice received the test compound intraperitoneally (at least 3 selected doses).
After a specified time after administration of the test compound mice were suspended by the tail with tape to an aluminum hook connected to a strain gauge. Mice were positioned such that the base of their tail was aligned with the bottom of the hook. […] A strain gauge connected to computer software detected any movements by the mouse in order to record the number of times (events) each subject enters into an escape behavior (struggling episodes), the duration of the event, and the average strength of each event during a 6-min test session. The following settings were used in all experiments: threshold 0.20 Newtons, off delay 30 msec.

T1 sequence (P34969 whole entry): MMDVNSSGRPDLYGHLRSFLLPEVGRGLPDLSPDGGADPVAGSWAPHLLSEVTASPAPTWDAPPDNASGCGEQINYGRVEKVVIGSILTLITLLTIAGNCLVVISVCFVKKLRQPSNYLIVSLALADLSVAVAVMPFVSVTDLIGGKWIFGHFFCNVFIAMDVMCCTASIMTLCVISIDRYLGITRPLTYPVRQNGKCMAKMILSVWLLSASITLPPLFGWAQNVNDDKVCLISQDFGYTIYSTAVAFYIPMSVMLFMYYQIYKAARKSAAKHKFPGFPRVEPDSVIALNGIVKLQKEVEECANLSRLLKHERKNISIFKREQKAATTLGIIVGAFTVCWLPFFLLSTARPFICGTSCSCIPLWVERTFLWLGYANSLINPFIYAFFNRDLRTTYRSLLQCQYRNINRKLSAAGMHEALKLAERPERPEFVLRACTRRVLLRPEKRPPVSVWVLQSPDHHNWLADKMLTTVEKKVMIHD

SMILES: O=C1CCc2ccc(OCCCCN3CCN(c4cccc5c4ccn5S(=O)(=O)c4ccccc4)CC3)cc2N1 [Compound 24, 7-(4-(4-(1-(Phenylsulphonyl)-1H-indol-4-yl)piperazin-1-yl)butoxy)-3,4-dihydroquinolin-2(1H)-one]
- activity in words, dizocilpine-induced locomotor hyperactivity test (Male CD-1 mice): active
- MED (minimum effective dose), dizocilpine-induced locomotor hyperactivity (Male CD-1 mice; i.p., 30 minutes before the experiment): 10 mg/kg
- Ki [1]: 0.067 µM
- MED (minimum effective dose), tail suspension test (C57BL/6J mice; C57BL/6J mice, i.p.): 1.25 mg/kg
- activity in words, tail suspension test (C57BL/6J mice; mice): active
